# Measurements as given in ChEMBL document CHEMBL1121892, “5-Tetrazolecarboxamides and their salts: new orally active antiallergy agents” (1981).
# Activity calls are given as the source filed them. No cut-off for these calls is given here.
# Assays:
# Rattus norvegicus [1] = assay: Inhibition of rat passive cutaneous anaphylaxis following i.p. administration.; assay type: functional; conditions: ip
# Rattus norvegicus [2] = assay: Inhibition of rat passive cutaneous anaphylaxis following p.o. administration.; conditions: po
# Rattus norvegicus [3] = assay: Inhibition of rat passive cutaneous anaphylaxis following p.o. administration; Not active.
Structure (SMILES),ED50 (Rattus norvegicus [1]) [mg/kg],ED50 (Rattus norvegicus [2]) [mg/kg],ED50 (Rattus norvegicus [3])
NC(=O)c1c(NC(=O)c2nnn[n-]2)cccc1N1CCOCC1.[Na+],0.2,–,–
CN1CCN(c2cccc(NC(=O)c3nn[nH]n3)c2C(N)=O)CC1,0.01,2.3,–
N#Cc1cc(NC(=O)c2nnn[n-]2)cc(NC(=O)c2nnn[n-]2)c1.[Na+].[Na+],0.04,1,–
O=C(Nc1ccccn1)c1nnn[n-]1.[Na+],0.31,0.68,–
N#Cc1ccccc1NC(=O)c1nnn[n-]1.[Na+],0.5,10,–
CCNc1cccc(NC(=O)c2nnn[n-]2)c1C#N.[Na+],1.1,2.6,–
NC(=O)c1cc(NC(=O)c2nnn[n-]2)cc(NC(=O)c2nnn[n-]2)c1.[Na+].[Na+],0.02,> 10,–
CN1CCN(c2cccc(NC(=O)c3nn[nH]n3)c2C#N)CC1,0.02,0.2,–
COc1cccc(NC(=O)c2nn[nH]n2)c1C(N)=O,0.1,0.2,–
CN(C)c1cccc(NC(=O)c2nnn[n-]2)c1C(N)=O.[Na+],0.9,34,–
CCOC(=O)C(=O)Nc1cc(C#N)cc(NC(=O)c2nn[nH]n2)c1,0.2,–,–
NC(=O)c1c(NC(=O)c2nnn[n-]2)cccc1N1CCCCC1.[Na+],0.8,46,–
O=C(Nc1cc(Cl)cc(NC(=O)c2nnn[n-]2)n1)c1nnn[n-]1.[Na+].[Na+],0.2,2,–
O=C(Nc1cccc(NC(=O)c2nnn[n-]2)n1)c1nnn[n-]1.[Na+].[Na+],0.02,0.1,–
N#Cc1c(NC(=O)c2nnn[n-]2)cccc1N1CCCCC1.[Na+],0.4,7,–
O=C([O-])c1cc(=O)c2c(OCC(O)COc3cccc4oc(C(=O)[O-])cc(=O)c34)cccc2o1.[Na+].[Na+] [CROMOLYN SODIUM],8,–,inactive
CN(C)c1cccc(NC(=O)c2nnn[n-]2)c1C#N.[Na+],2,1.7,–
N#Cc1cc(NC(=O)c2nnn[n-]2)c(Cl)c(NC(=O)c2nnn[n-]2)c1.[Na+].[Na+],0.3,–,–
O=C(Nc1cc(C(F)(F)F)cc(NC(=O)c2nnn[n-]2)c1Cl)c1nnn[n-]1.[Na+].[Na+],1.6,–,–
N#Cc1c(NC(=O)c2nn[nH]n2)cccc1N1CCOCC1,0.5,10,–
